The results in this text go back to ChEMBL document CHEMBL5584293, “Discovery and evaluation of novel spiroheterocyclic protective agents via a SIRT1 upregulation mechanism in cisplatin-induced premature ovarian failure” (Bioorg Med Chem, 2024).

In one series the test system is KGN. The series is described as follows: Protective effect against cisplatin-induced injury in human KGN cells assessed as cell survival at 5 uM incubated for 48 hrs by MTT assay. The class given is functional, cell-based.
Another series has as its system NRK. Nature of the series: Cytotoxicity against rat NRK cells assessed as cell viability at 50 uM incubated for 48 hrs by MTT assay. The class given is toxicity, cell-based. Background: Formazan colour is commonly taken as a measure of viable cells.
The nature of series [1]: Cytotoxicity against human MIHA cells assessed as cell viability at 50 uM incubated for 48 hrs by MTT assay. The class given is toxicity, cell-based.
Series [2] can be described thus: Cytotoxicity against human PDL cells assessed as cell viability at 50 uM incubated for 48 hrs by MTT assay. The class given is toxicity, cell-based.

Active and inactive are the calls of the source. The calls are words filed in the database; no cut-off is given here.

Take `CC1N[C@@]2(C(=O)c3cccc4cccc2c34)[C@@]2(CCC/C(=C\c3ccc(O)cc3)C2=O)[C@H]1c1ccc(O)cc1` (some centres not stated): in the series with KGN, the outcome was inactive.
Same read-out and setting: the result for `O=C1c2cccc3cccc(c23)[C@]12NC(Cc1ccc(O)cc1)[C@H](c1ccccc1)[C@]21CCC/C(=C\c2ccccc2)C1=O` (some centres not stated) reads “inactive”; that for `CC1N[C@@]2(C(=O)c3cccc4cccc2c34)[C@@]2(CCC/C(=C\c3ccccc3Cl)C2=O)[C@H]1c1ccccc1Cl` (some centres not stated), “Active”.
Same read-out and setting: in the case of `O=C1c2cccc3cccc(c23)[C@]12N1CCC(O)C1[C@H](c1ccccc1)[C@]21CCC/C(=C\c2ccccc2)C1=O` (some centres not stated) it was “Active”; in that of `CC(C)C1N[C@@]2(C(=O)c3cccc4cccc2c34)[C@@]2(CCC/C(=C\c3ccccc3)C2=O)[C@H]1c1ccccc1` (some centres not stated), “inactive”.
`CSCCC1N[C@@]2(C(=O)c3cccc4cccc2c34)[C@@]2(CCC/C(=C\c3ccccc3)C2=O)[C@H]1c1ccccc1` (some centres not stated): the result in the series on KGN was inactive.
For `CN1C[C@H](c2ccccc2)C2(CN(C(=O)OC(C)(C)C)C/C(=C\c3ccccc3)C2=O)[C@]12C(=O)c1cccc3cccc2c13` (single isomer, unassigned), the Activity result (in the series on NRK; in series [1]; in series [2]) was “Non-Toxic” each time.
For the molecule `CC1N[C@@]2(C(=O)c3cccc4cccc2c34)[C@@]2(CCC/C(=C\c3ccccc3C(F)(F)F)C2=O)[C@H]1c1ccccc1C(F)(F)F` (some centres not stated), the outcome with KGN was inactive.
For the molecule `CN1C[C@H](c2ccccc2)[C@]2(CCC/C(=C\c3ccccc3)C2=O)[C@]12C(=O)Nc1ccccc12`, the Activity result (in the series on NRK; in series [1]; in series [2]) was “Non-Toxic” in each case.
`CCC(C)C1N[C@@]2(C(=O)c3cccc4cccc2c34)[C@@]2(CCC/C(=C\c3ccccc3)C2=O)[C@H]1c1ccccc1` (some centres not stated): in the series on KGN, the result was inactive.
The same measure, in the same setting: in the case of `CC1N[C@@]2(C(=O)c3cccc4cccc2c34)[C@@]2(CCC/C(=C\c3ccc(Cl)c(Cl)c3)C2=O)[C@H]1c1ccc(Cl)c(Cl)c1` (some centres not stated) it was “inactive”; in that of `Cc1ccc(/C=C2\CCC[C@@]3(C2=O)[C@@H](c2ccc(C)s2)C(C)N[C@@]32C(=O)c3cccc4cccc2c34)s1` (some centres not stated), “Active”.
Still for that read-out and setting: the result for `CC(C)CC1N[C@@]2(C(=O)c3cccc4cccc2c34)[C@@]2(CCC/C(=C\c3ccccc3)C2=O)[C@H]1c1ccccc1` (some centres not stated) reads “inactive”.
Same read-out and setting: the result for `CC1N[C@@]2(C(=O)c3cccc4cccc2c34)[C@@]2(CCC/C(=C\c3cccc(O)c3)C2=O)[C@H]1c1cccc(O)c1` (some centres not stated) reads “inactive”; that for `N=C(N)NCCCC1N[C@@]2(C(=O)c3cccc4cccc2c34)[C@@]2(CCC/C(=C\c3ccccc3)C2=O)[C@H]1c1ccccc1` (some centres not stated), “inactive”; that for `CC1N[C@@]2(C(=O)c3cccc4cccc2c34)[C@@]2(CCC/C(=C\N3CCOCC3)C2=O)[C@H]1N1CCOCC1` (some centres not stated), “Active”.
Consider `CN1C[C@H](c2ccccc2)[C@]2(COC/C(=C\c3ccccc3)C2=O)[C@]12C(=O)Nc1ccc(Cl)cc12`, for which the Activity entry (in the series with NRK; in series [1]; in series [2]) was “Non-Toxic” throughout.
Take `O=C1c2cccc3cccc(c23)[C@]12NC(CO)[C@H](c1ccccc1)[C@]21CCC/C(=C\c2ccccc2)C1=O` (some centres not stated): the outcome in the series on KGN was Active.
`CC1N[C@@]2(C(=O)c3cccc4cccc2c34)[C@@]2(CCC/C(=C\c3ccc(Cl)cc3Cl)C2=O)[C@H]1c1ccc(Cl)cc1Cl` (some centres not stated): the result in the series with KGN was inactive.
The same measure, in the same setting: in the case of `CC1N[C@@]2(C(=O)c3cccc4cccc2c34)[C@@]2(CCC/C(=C\c3ccc(Cl)c(Br)c3)C2=O)[C@H]1c1ccc(Cl)c(Br)c1` (some centres not stated) it was “inactive”; in that of `O=C1c2cccc3cccc(c23)[C@]12NC(Cc1c[nH]cn1)[C@H](c1ccccc1)[C@]21CCC/C(=C\c2ccccc2)C1=O` (some centres not stated), “inactive”; in that of `COc1ccccc1/C=C1\CCC[C@@]2(C1=O)[C@@H](c1ccccc1OC)C(C)N[C@@]21C(=O)c2cccc3cccc1c23` (some centres not stated), “inactive”.
The same measure, in the same setting: the result for `O=C1c2cccc3cccc(c23)[C@]12NC(Cc1c[nH]c3ccccc13)[C@H](c1ccccc1)[C@]21CCC/C(=C\c2ccccc2)C1=O` (some centres not stated) reads “Active”; that for `CCOc1ccc(/C=C2\CCC[C@@]3(C2=O)[C@@H](c2ccc(OCC)c(OCC)c2)C(C)N[C@@]32C(=O)c3cccc4cccc2c34)cc1OCC` (some centres not stated), “inactive”.
Take `NC(=O)CC1N[C@@]2(C(=O)c3cccc4cccc2c34)[C@@]2(CCC/C(=C\c3ccccc3)C2=O)[C@H]1c1ccccc1` (some centres not stated): the result in the series on KGN was Active.
On the same count and under the same terms, the result for `O=C(O)CCC1N[C@@]2(C(=O)c3cccc4cccc2c34)[C@@]2(CCC/C(=C\c3ccccc3)C2=O)[C@H]1c1ccccc1` (some centres not stated) reads “inactive”; that for `CC1N[C@@]2(C(=O)c3cccc4cccc2c34)[C@@]2(CCC/C(=C\c3ccccc3Br)C2=O)[C@H]1c1ccccc1Br` (some centres not stated), “Active”; that for `O=C1c2cccc3cccc(c23)[C@]12NC(Cc1ccccc1)[C@H](c1ccccc1)[C@]21CCC/C(=C\c2ccccc2)C1=O` (some centres not stated), “Active”.
The same measure, in the same setting: the result for `CC1N[C@@]2(C(=O)c3cccc4cccc2c34)[C@@]2(CCC/C(=C\c3cc(F)cc(F)c3)C2=O)[C@H]1c1cc(F)cc(F)c1` (some centres not stated) reads “inactive”.
With `CC1N[C@@]2(C(=O)c3cccc4cccc2c34)[C@@]2(CCC/C(=C\c3ccc(Cl)cc3)C2=O)[C@H]1c1ccc(Cl)cc1` (some centres not stated), the result with KGN was Active.
On to `CC1N[C@@]2(C(=O)c3cccc4cccc2c34)[C@@]2(CCC/C(=C\c3cc(Br)cs3)C2=O)[C@H]1c1cc(Br)cs1` (some centres not stated), for which the result in the series with KGN was Active.
On the same count and under the same terms, the result for `COc1ccc(/C=C2\CCC[C@@]3(C2=O)[C@@H](c2ccc(OC)cc2OC)C(C)N[C@@]32C(=O)c3cccc4cccc2c34)c(OC)c1` (some centres not stated) reads “inactive”; that for `CC1N[C@@]2(C(=O)c3cccc4cccc2c34)[C@@]2(CCC/C(=C\c3ccc4ccccc4c3)C2=O)[C@H]1c1ccc2ccccc2c1` (some centres not stated), “Active”.
For `COc1ccc(/C=C2\CCC[C@@]3(C2=O)[C@@H](c2ccc(OC)c(O)c2)C(C)N[C@@]32C(=O)c3cccc4cccc2c34)cc1O` (some centres not stated), in the series with KGN, the outcome was inactive.
Same read-out and setting: in the case of `COc1cc(/C=C2\CCC[C@@]3(C2=O)[C@@H](c2ccc(O)c(OC)c2)C(C)N[C@@]32C(=O)c3cccc4cccc2c34)ccc1O` (some centres not stated) it was “inactive”; in that of `CC(O)C1N[C@@]2(C(=O)c3cccc4cccc2c34)[C@@]2(CCC/C(=C\c3ccccc3)C2=O)[C@H]1c1ccccc1` (some centres not stated), “Active”.
The same measure, in the same setting: in the case of `CC1N[C@@]2(C(=O)c3cccc4cccc2c34)[C@@]2(CCC/C(=C\c3ccc(Br)o3)C2=O)[C@H]1c1ccc(Br)o1` (some centres not stated) it was “Active”; in that of `CCOc1ccc(/C=C2\CCC[C@@]3(C2=O)[C@@H](c2ccc(OCC)cc2)C(C)N[C@@]32C(=O)c3cccc4cccc2c34)cc1` (some centres not stated), “inactive”.
Same read-out and setting: the result for `CC1N[C@@]2(C(=O)c3cccc4cccc2c34)[C@@]2(CCC/C(=C\c3ccc(Br)cc3)C2=O)[C@H]1c1ccc(Br)cc1` (some centres not stated) reads “Active”; that for `CC1N[C@@]2(C(=O)c3cccc4cccc2c34)[C@@]2(CCC/C(=C\c3ccc(O)c(O)c3)C2=O)[C@H]1c1ccc(O)c(O)c1` (some centres not stated), “inactive”.
As to `NC(=O)CCC1N[C@@]2(C(=O)c3cccc4cccc2c34)[C@@]2(CCC/C(=C\c3ccccc3)C2=O)[C@H]1c1ccccc1` (some centres not stated), the outcome with KGN was inactive.
